The text below walks through data of patent US10570099B2, “Salts of an epidermal growth factor receptor kinase inhibitor” (Celgene CAR LLC, priority 2012, dated 2020).

Data set [1] in a line: Dog PK Study 2 (gastric pH adjustment, food effect). It is filed as in vivo, beagle dogs. To be noted: dogs, oral, 30 mg/kg QD, both low and high gastric pH conditions. The method, then: Compound 1 free base and compound 2, as the Form I monohydrobromide (HBr) salt, were evaluated in a cross-over dog PK study in which male dogs were pre-treated with either pentagastrin (to decrease gastric pH) or famotidine (to increase gastric pH) prior to oral dosing to control gastric pH. In addition, the effect of food on the systemic exposure to compound 1 was also evaluated in dogs receiving Form I HBr with pentagastrin pre-treatment. Compound 1 free base capsule consisted of compound 1 free base in Vitamin E TPGS and PEG 400 filled into a capsule. The Form I hydrobromide salt capsule consisted of Form I HBr alone filled into a capsule.
There was a minimum 6-day washout between dosing. On the day of dosing under fed condition, dogs were given 60 gram of a high fat diet (Harlan Teklad 2027C) and allowed to consume all of the food within 15-20 minutes. The animals were given a 10-minute rest period and then the capsule doses were administered. Plasma samples were collected at pre-dose and 0.5, 1, 2, 4, 6, 8, 12 and 24 hours post dose.

The nature of data set [2]: Administration to healthy volunteers (single dose PK study). It is filed as in vivo, healthy male subjects. Conditions: 50 mg dose, Regimen B. The text has this:
The primary objective of the study is to compare the compound 1 pharmacokinetic (PK) profiles of single doses of Form I monohydrobromide formulations with that of the compound 1 free base in healthy adult males.
This is a single centre non-randomised, open-label, single dose study in healthy male subjects. Subjects will be screened for eligibility to participate in the study up to 28 days before dosing. The subjects will be admitted to the clinical unit at approximately 09:00 in the morning on the day prior to dosing (Day-1) and will remain on site until 24 h after each dose. Each subject will attend a follow-up visit 4 to 6 days after the final dose.
One group of 12 subjects will be dosed in an effort to obtain the data described above. Each subject will receive the following formulations in a crossover investigation. Dosing will be separated by at least 7 days. • Regimen A: 150 mg compound 1 (free base) capsule • Regimen B: 50 mg as active compound 2 (Form I HBr) tablet formulation • Regimen C: ≤150 mg as active compound 2 (Form I HBr) tablet formulation
All formulations will be dosed in the morning, following an overnight fast. Subjects will be allowed water up to 2 h before the scheduled dosing time and will be provided with 240 mL of water at 2 h post-dose. […]
Plasma concentration data will be tabulated and plotted for each subject for whom concentrations are quantifiable.

`Br.C=CC(=O)Nc1cccc(Nc2nc(Nc3ccc(N4CCN(C(C)=O)CC4)cc3OC)ncc2C(F)(F)F)c1` [Form I hydrobromide salt]: the “compound 1 exposure compared to the free base form” value in data set [1] is reported as “significantly higher”. In data set [2], the patient-to-patient variability result was “less patient-to-patient variability”.
